The values below come from patent US8324250B2 (Hoffmann-La Roche Inc., priority 2009, dated 2012).

The assay addresses T1, recombinant human NK3 receptor (Homo sapiens, UniProt P29371).
T1 construct: expressed in transfected cells; host or cells: HEK293 cells (transient expression), membranes
T1 sequence (P29371 1-465): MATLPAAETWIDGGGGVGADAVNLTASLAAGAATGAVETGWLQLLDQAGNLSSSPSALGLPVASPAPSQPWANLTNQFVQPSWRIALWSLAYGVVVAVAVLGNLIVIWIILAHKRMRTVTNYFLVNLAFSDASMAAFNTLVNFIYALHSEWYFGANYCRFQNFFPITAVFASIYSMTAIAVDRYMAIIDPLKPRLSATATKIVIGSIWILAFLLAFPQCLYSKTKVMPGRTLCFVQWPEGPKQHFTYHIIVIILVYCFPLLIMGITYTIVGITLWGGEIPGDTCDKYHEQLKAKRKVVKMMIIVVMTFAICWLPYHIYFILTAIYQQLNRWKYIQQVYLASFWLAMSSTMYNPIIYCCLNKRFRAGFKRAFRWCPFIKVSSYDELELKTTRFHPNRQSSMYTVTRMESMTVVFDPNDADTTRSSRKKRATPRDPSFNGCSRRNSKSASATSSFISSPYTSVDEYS
The assay can be described thus: [3H]SR142801 competition binding assay. The following applies: membranes from HEK293 cells transiently expressing recombinant human NK3 receptor; [3H]SR142801 radioligand; 75 min at RT; Ki by Cheng-Prussoff; read-out: Data Ki (hNK-3 receptor affinity). As for the experimental part: [^3H]SR142801 Competition Binding Assay
hNK3 receptor binding experiment were performed using [^3H]SR142801 (Catalog No. TRK1035, specific activity: 74.0 Ci/mmol, Amersham, GE Healthcare UK limited, Buckinghamshire, UK) and membrane isolated from HEK293 cells transiently expressing recombinant human NK3 receptor. After thawing, the membrane homogenates were centrifuged at 48,000×g for 10 min at 4° C., the pellets were resuspended in the 50 mM Tris-HCl, 4 mM MnCl2, 1 μM phosphoramidon, 0.1% BSA binding buffer at pH 7.4 to a final assay concentration of 5 μg protein/well. […] At the end of the incubation, membranes were filtered onto unitfilter (96-well white microplate with bonded GF/C filter preincubated 1 h in 0.3% PEI+0.3% BSA, Packard BioScience, Meriden, Conn.) with a Filtermate 196 harvester (Packard BioScience) and washed 4 times with ice-cold 50 mM Tris-HCl, pH 7.4 buffer. Nonspecific binding was measured in the presence of 10 μM SB222200 for both radioligands. The radioactivity on the filter was counted (5 min) on a Packard Top-count microplate scintillation counter with quenching correction after addition of 45 μl of microscint 40 (Can berra Packard S. A., Zurich, Switzerland) and shaking for 1 h. Inhibition curves were fitted according to the Hill equation: y=100/(1+(x/IC50)^nH), where nH=slope factor using Excel-fit 4 software (Microsoft). IC50 values were derived from the inhibition curve and the affinity constant (Ki) values were calculated using the Cheng-Prussoff equation Ki═IC50/(1+[L]/KD) where [L] is the concentration of radioligand and KD is its dissociation constant at the receptor, derived from the saturation isotherm. All experiments were performed in duplicate and the mean±standard error (SEM) of the individual Ki values was calculated.
As for `Cc1noc(-c2ccc(C(=O)N3CCC(C(=O)N[C@@H](c4ccc(F)cc4)C(F)(F)F)(c4ccc(F)cc4)CC3)cc2)n1` (racemic) [Example 202, 4-(4-Fluoro-phenyl)-1-[4-(3-methyl-[1,2,4]oxadiazol-5-yl)-benzoyl]-piperidine-4-carboxylic acid [(SR)-2,2,2-trifluoro-1-(4-fluoro-phenyl)-ethyl]-amide], the inhibition constant (Ki) is 6.8 nM.

As for `C[C@H](NC(=O)C1(c2ccc(F)cc2)CCN(C(=O)c2ccc(N3CCS(=O)(=O)CC3)cc2)CC1)c1ccc(F)cc1` [Example 1, 1-[4-(1,1-Dioxo-1λ^6-thiomorpholin-4-yl)-benzoyl]-4-(4-fluoro-phenyl)-piperidine-4-carboxylic acid [(S)-1-(4-fluoro-phenyl)-ethyl]-amide], the Ki was found to be 29.3 nM.

As to `C[C@H](NC(=O)C1(c2ccccc2)CCN(C(=O)c2ccc(-c3ccccc3)cc2)CC1)c1ccccc1` [Example 2, 1-(Biphenyl-4-carbonyl)-4-phenyl-piperidine-4-carboxylic acid ((S)-1-phenyl-ethyl)-amide], the Ki was 22.9 nM. As to `C[C@H](NC(=O)C1(c2ccccc2)CCN(C(=O)C2CCC(c3ccc(Cl)cc3)CC2)CC1)c1ccccc1` (stereo partly drawn) [Example 3, 1-[4-(4- Chlorophenyl)cyclohexanecarbonyl]-4-phenyl-piperidine-4-carboxylic acid ((S)-1-phenyl-ethyl)-amide], the inhibitory constant (Ki) turned out to be 48.2 nM.

Regarding `C[C@H](NC(=O)C1(c2ccccc2)CCN(C(=O)c2ccc(-c3ccc(Cl)c(Cl)c3)cc2)CC1)c1ccccc1` [Example 4, 1-(3′,4′-Dichloro-biphenyl-4-carbonyl)-4-phenyl-piperidine-4-carboxylic acid ((S)-1-phenyl-ethyl)-amide], the inhibition constant Ki stood at 19.6 nM. For `C[C@H](NC(=O)C1(c2ccccc2)CCN(C(=O)c2ccc(-c3ccc(C(F)(F)F)cc3)cc2)CC1)c1ccccc1` [Example 5, 4-Phenyl-1-(4′-trifluoromethyl-biphenyl-4-carbonyl)-piperidine-4-carboxylic acid ((S)-1-phenyl-ethyl)-amide] the value was 23.9 nM; for `C[C@H](NC(=O)C1(c2ccccc2)CCN(C(=O)c2ccc(-c3ccccn3)cc2)CC1)c1ccccc1` [Example 6, 4-Phenyl-1-(4-pyridin-2-yl-benzoyl)-piperidine-4-carboxylic acid ((S)-1-phenyl-ethyl)-amide], 40.9 nM. For `C[C@H](NC(=O)C1(c2ccccc2)CCN(C(=O)c2ccc(-c3ccncc3)cc2)CC1)c1ccccc1` [Example 7, 4-Phenyl-1-(4-pyndin-4-yl-benzoyl)-piperidine-4-carboxylic acid ((S)-1-phenyl-ethyl)-amide] the value was 39.6 nM; for `C[C@H](NC(=O)C1(c2ccccc2)CCN(C(=O)c2ccc(N3CCOCC3)cc2)CC1)c1ccccc1` [Example 8, 1-(4-Morpholin-4-yl-benzoyl)-4-phenyl-piperidine-4-carboxylic acid ((S)-l-phenyl-ethyl)-amide], 84.4 nM.

With `C[C@H](NC(=O)C1(c2ccccc2)CCN(C(=O)c2ccc(N3CCS(=O)(=O)CC3)cc2)CC1)c1ccccc1` [Example 9, 1-[4-(1,1-Dioxo-lλ6-thiomorpholin-4-yl)-benzoyl]-4-phenyl-piperidine-4-carboxylic acid ((S)-1-phenyl-ethyl)-amide], the Ki amounted to 21.8 nM. With `C[C@H](NC(=O)C1(c2ccccc2)CCN(C(=O)c2ccc(N3CCOCC3)nc2)CC1)c1ccccc1` [Example 10, 1-(6-Morpholin-4-yl-pyridine-3-carbonyl)-4-phenyl-piperidine-4-carboxylic acid ((S)-1-phenyl-ethyl)-amide] the figure was 76.8 nM; with `C[C@H](NC(=O)C1(c2ccccc2)CCN(C(=O)c2ccc(N3CCCCC3)cc2)CC1)c1ccccc1` [Example 11, 4-Phenyl-1-(4-piperidin-1-yl-benzoyl)-piperidine-4-carboxylic acid ((S)-1-phenyl-ethyl)-amide], 44 nM; with `C[C@H](NC(=O)C1(c2ccccc2)CCN(C(=O)c2ccc(N3CCCCC3)nc2)CC1)c1ccccc1` [Example 12, 4-Phenyl-1-(3,4,5,6-tetrahydro-2H-[l,2′]bipyridinyl-5′-carbonyl)-piperidine-4-carboxylic acid ((S)-1-phenyl-ethyl)-amide], 50.4 nM. With `C[C@H](NC(=O)C1(c2ccccc2)CCN(C(=O)c2ccc(N3CCN(C)CC3)cc2)CC1)c1ccccc1` [Example 14, 1-[4-(4-Methyl-piperazin-1-yl)-benzoyl]-4-phenyl-piperidine-4-carboxylic acid ((S)-l-phenyl-ethyl)-amide] the figure was 98.1 nM. For `C[C@H](NC(=O)C1(c2ccccc2)CCN(C(=O)c2ccc(-n3cccc3)cc2)CC1)c1ccccc1` [Example 18, 4-Phenyl-1-(4-pyrrol-l-yl-benzoyl)-piperidine-4-carboxylic acid ((S)-1-phenyl-ethyl)-amide] the value was 96.6 nM. Turning to `Cc1ccc(-c2nc(C(=O)N3CCC(C(=O)N[C@@H](C)c4ccccc4)(c4ccccc4)CC3)cs2)cc1` [Example 21, 4-Phenyl-1 - (2-p-tolyl-thiazole-4-carbonyl)-piperidine-4-carboxylic acid ((S)-1-phenyl-ethyl)-amide], the Ki is 99.8 nM. With `C[C@H](NC(=O)C1(c2ccccc2)CCN(C(=O)c2ccc(-c3cnco3)cc2)CC1)c1ccccc1` [Example 22, 1-(4-Oxazol-5-yl-benzoyl)-4-phenyl-piperidine-4-carboxylic acid ((S)-1-phenyl-ethyl)-amide] the figure was 65.8 nM; with `C[C@H](NC(=O)C1(c2ccccc2)CCN(C(=O)c2csc(-c3ccncc3)n2)CC1)c1ccccc1` [Example 27, 4-Phenyl-1-(2-pyridin-4-yl-thiazole-4-carbonyl)-piperidine-4-carboxylic acid ((S)-1-phenyl-ethyl)-amide], 76.5 nM; with `C[C@H](NC(=O)C1(c2ccccc2)CCN(C(=O)c2csc(-c3cccnc3)n2)CC1)c1ccccc1` [Example 28, 4-Phenyl-1-(2-pyridin-3-yl-thiazole-4-carbonyl)-piperidine-4-carboxylic acid ((S)-1-phenyl-ethyl)-amide], 76.2 nM. With `C[C@H](NC(=O)C1(c2ccccc2)CCN(C(=O)c2ccc(-n3cncn3)cc2)CC1)c1ccccc1` [Example 34, 4-Phenyl-1-(4-[1,2,4]triazo 1-1-yl-benzoyl)-piperidine-4-carboxylic acid ((S)-1-phenyl-ethyl)-amide] the figure was 98.5 nM. `C[C@H](NC(=O)C1(c2ccccc2)CCN(C(=O)c2ccc(-c3nnco3)cc2)CC1)c1ccccc1` [Example 35, 1-(4-[l,3,4]Oxadiazol-2-yl-benzoyl)-4-phenyl-piperidine-4-carboxylic acid ((S)-1-phenyl-ethyl)-amide]: the inhibition constant (Ki) turned out to be 68.7 nM. For `C[C@H](NC(=O)C1(c2ccccc2)CCN(C(=O)c2ccc(-c3ccccc3)cn2)CC1)c1ccccc1` [Example 38, 4-Phenyl-1-(5-phenyl-pyridine-2-carbonyl)-piperidine-4-carboxylic acid ((S)-1-phenyl-ethyl)-amide] the value was 21.4 nM; for `C[C@H](NC(=O)C1(c2ccccc2)CCN(C(=O)c2ccc(-n3cncn3)nc2)CC1)c1ccccc1` [Example 39, 4-Phenyl-1-(6-[l,2,4]triazol-1-yl-pyridine-3-carbonyl)-piperidine-4-carboxylic acid ((S)-1-phenyl-ethyl)-amide], 80.8 nM; for `C[C@H](NC(=O)C1(c2ccccc2)CCN(C(=O)c2ccc(-n3cnnn3)cc2)CC1)c1ccccc1` [Example 40, 4-Phenyl-1-(4-tetrazol-1-yl-benzoyl)-piperidine-4-carboxylic acid ((S)-1-phenyl-ethyl)-amide], 28.5 nM.

With `Cc1nc(-c2ccc(C(=O)N3CCC(C(=O)N[C@@H](C)c4ccccc4)(c4ccccc4)CC3)cc2)no1` [Example 41, 1-[4-(5-Methyl-[1,2,4]oxa-diazol-3-yl)-benzoyl]-4-phenyl-piperidine-4-carboxylic acid ((S)-1-phenyl-ethyl)-amide], the Ki turned out to be 9.4 nM.
